Measured values as given in patent US20160200743A1, “BORON-CONTAINING SMALL MOLECULES AS ANTI-INFLAMMATORY AGENTS” (ANACOR PHARMACEUTICALS, INC., priority 2013, published 2016).

Target: Human PDE4 (PDE4B2 truncated) (Homo sapiens, UniProt Q07343)
Experiment: Measurement of Phosphodiesterase 4 (PDE4) inhibition, zinc and barium precipitation method with 3H-cAMP
Format: biochemical
Settings: PDE4B2 truncated catalytic domain, 0.3 pM enzyme, 20 min pre-incubation, 30° C. for 6 minutes
Protocol: Human PDE4 enzymatic activity was assayed using the zinc and barium precipitation method of Saldou, N. et at (1998: Cell Signal, vol 10, No. 6, pp 427-440). The assay was performed in 96-well v-bottom plates (BrandPlates, Wertheim, Germany). PDE4B2 truncated is the catalytic domain including the UCR2 and a portion of the UCR1 domain of PDE4B2 (23.4 mg/mL) from Proteros Biostructures. Final concentration of enzyme in the assay was 0.3 pM. Stocks of the tested compounds were prepared in 100% DMSO at a concentration of 40 mM. The 105-μL reaction volume consisted of 45 mM Tris-HCl, pH 7.5, 12.5 mM MgSO4, 1.5 μM […] (Sigma, St Louis, Mo.) supplemented with 0.15 μM ^3H-cAMP (Perkin Elmer, Waltham, Mass.). Compounds were pre-incubated with enzyme at room temperature for 20 min prior to initiating the reaction by adding substrate (cAMP supplemented with ^3H-cAMP). After incubation at 30° C. for 6 minutes, the reaction was stopped by the addition of 50 μL fresh made 21.5 mM ZnSO4.7H2O (Alfa Aesar, Ward Hill, Mass.) containing 5 mM AMP as a co-precipitant. Total AMP was precipitated by the addition of 50 μL 17.5 mM Ba(OH)2, prepared fresh daily in autoclaved MilliQ water. 180 uL of well-mixed precipitate was transferred and collected by filtration (Millipore Multiscreen; MSFBN6B50). The plates were washed five times with cold wash solution (1 mM NaOH, 100 mM NaCl) and dried for 30 min to 1 hour at 65±10° C. or overnight at room temperature. The bottoms of plates were sealed with clear tapes (Millipore Co-operation, Billerica, Mass.) and 50±10 μL of scintillation cocktail (Perkin Elmer Waltham, Mass.) was added. The plates were top sealed and radioactivity was measured with scintillation counter.

Human PDE4 (PDE4B2 truncated), sequence (Q07343 212-659 limits assumed): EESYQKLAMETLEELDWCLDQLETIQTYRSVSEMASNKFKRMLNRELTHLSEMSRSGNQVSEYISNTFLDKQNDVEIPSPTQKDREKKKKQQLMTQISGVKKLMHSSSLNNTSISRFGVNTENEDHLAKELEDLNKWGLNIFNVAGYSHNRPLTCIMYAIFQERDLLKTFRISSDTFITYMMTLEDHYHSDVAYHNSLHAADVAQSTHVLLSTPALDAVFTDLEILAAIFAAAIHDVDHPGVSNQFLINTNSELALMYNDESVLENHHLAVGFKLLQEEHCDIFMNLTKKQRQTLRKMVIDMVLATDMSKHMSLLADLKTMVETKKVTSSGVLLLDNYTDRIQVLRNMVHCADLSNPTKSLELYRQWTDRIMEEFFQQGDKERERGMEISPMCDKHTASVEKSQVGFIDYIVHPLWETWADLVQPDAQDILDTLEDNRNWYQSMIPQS

## N#Cc1ccc(C(O)c2ccc3c(c2)COB3O)cc1 (stereo not drawn) [B, 4-(hydroxy(1-hydroxy-1,3-dihydrobenzo[c][1,2]oxaborol-5-yl)methyl)benzonitrile]
  IC50: 3090 nM

## N#Cc1ccc(C(=O)c2ccc3c(c2)COB3O)cc1 [A, 4-(1-hydroxy-1,3-dihydrobenzo[c][1,2]oxaborole-5-carbonyl)benzonitrile]
  IC50: 427 nM

## N#Cc1ccc([S+]([O-])c2ccc3c(c2)COB3O)cc1 (stereo not drawn) [D, 4-(1-hydroxy-1,3-dihydrobenzo[c][1,2]oxaborol-5-ylsulfinyl)benzonitrile]
  IC50: 47 nM
